Results as given in patent US10406239B2, “Water-soluble docetaxel anticancer drug compound and preparation method and use thereof” (NANJING YOUYI MEDICAL TECHNOLOGY CO., LTD, priority 2015, dated 2019).
Marks after values point to notes of the source that are not given here.

Columns and labels:
[1] = system: A549 human lung cancer xenografts; assay: Growth inhibition on A549 human lung cancer xenografts in nude mice; assay type: in vivo, BALB/c nude mice; settings: for Tumor inhibition rate: by tumor weight
Experimental: (§1) The dose volume was 0.4 ml per 20 g, that is, the dose was 96 mg/kg. Then, the solution was diluted to other desired concentrations with 0.9% sodium chloride solution.
(§2) Docetaxel injection, manufactured by Jiangsu Hengrui Pharmaceutical Co., Ltd., lot number: 15011215, specification: 0.5 ml: 20 mg. Formulation method: during use, 20 mg of docetaxel injection of the above specification was added to 1.5 ml of a solvent for the docetaxel injection to give a concentration of 10 mg/ml, and then fully diluted with saline to 1 mg/ml. The dose volume was 0.2 ml per 20 g, that is, the dose was 10 mg/kg.
(§3) BALB/c nude mice, provided by Changzhou Kavens Laboratory Animal Co., Ltd. (Experimental Animal Production License: SOCK (Su) 2011-0003), age: 35-40 days, weight: 18-24 g, female.
A549 human lung cancer xenografts in nude mice was established by inoculating human lung cancer A549 cell line subcutaneously to the axillary fossa of nude mice in an amount of 2*10^6 cells/animal.
(§4) Human lung cancer A549 cell line in logarithmic growth phase was prepared into a cell suspension of 1×10^8 cells/ml under aseptic conditions and subcutaneously inoculated to the right axillary fossa of nude mice in a volume of 0.1 ml. The size of the xenograft in the nude mice was measured with a vernier caliper. After the xenografts grew to 100-300 mm^3, the animals were randomly grouped. The anti-tumor effect of the test agents was dynamically observed by measuring the size of the xenografts. The size of the xenografts was measured once every 3 days. The dose volume was 0.4 ml/20 g. Twenty-one days later, the mice were sacrificed and the tumors were surgically excised and weighed. The tumor volume (TV) is calculated by a formula below: TV=½×a×b^2
The relative tumor volume (RTV) is calculated based on the measurements by a formula: RTV=Vt/V0, where V0 is the measured tumor volume upon being caged (i.e., d0) and Vt is the tumor volume at each measurement. The evaluation index of the anti-tumor activity is relative tumor growth rate T/C (%), which is calculated by a formula below: […]
in which TRTV is the RTV of the treatment group; and CRTV is the RTV of the negative control group.
The tumor inhibition rate is calculated by a formula below: […]
Tweight is the average tumor weight of the treatment group; and Cweight is the average tumor weight of the negative control group.

[2] = Effect on body weight of nude mice with A549 human lung cancer xenografts; assay type: in vivo, BALB/c nude mice
Experimental: as §1, §2, §3, §4

[3] = background statement; cited from earlier work
[4] = background statement; cited from earlier work; remark: listed apart in the source
[5] = Docetaxel 10 mg/kg, tail vein, once every 3 days, 7 doses, 21 d
[6] = Docetaxel 10 mg/kg, tail vein, once every 3 days, 3 d
[7] = Docetaxel 10 mg/kg, tail vein, once every 3 days, 6 d
[8] = Docetaxel 10 mg/kg, tail vein, once every 3 days, 9 d
[9] = Docetaxel 10 mg/kg, tail vein, once every 3 days, 12 d
[10] = Docetaxel 10 mg/kg, tail vein, once every 3 days, 15 d
[11] = Docetaxel 10 mg/kg, tail vein, once every 3 days, 18 d

CC(=O)O[C@@]12CO[C@@H]1C[C@H](O)[C@@]1(C)C(=O)[C@H](O)C3=C(C)[C@@H](OC(=O)[C@H](O)[C@@H](NC(=O)OC(C)(C)C)c4ccccc4)C[C@@](O)([C@@H](OC(=O)c4ccccc4)[C@H]21)C3(C)C [Docetaxel]
Tumor volume ([1]; Docetaxel 10 mg/kg group, 0 d (baseline)): 100.58 ± 20.87 mm^3 | Tumor inhibition rate ([1]; Docetaxel 10 mg/kg, once every 3 days, 7 doses): 72.16% | Tumor inhibition rate ([1]; Docetaxel 10 mg/kg, once every 3 days, 7 doses, listed as docetaxel): 72.16% | Tumor weight ([1]; Docetaxel 10 mg/kg, once every 3 days, tumors excised after 21 days): 0.33 ± 0.15 g | RTV (relative tumor volume) [1, 5]: 2.40 ± 0.99 | T/C (relative tumor growth rate) [1, 5]: 21.15% | Tumor volume [1, 5]: 226.65 ± 56.45* mm^3 | T/C (relative tumor growth rate) ([1]; Docetaxel 10 mg/kg, tail vein, once every 3 days, 7 doses, 21 d, listed as docetaxel): 21.15% | RTV (relative tumor volume) [1, 6]: 1.62 ± 0.37 | T/C (relative tumor growth rate) [1, 6]: 56.09% | Tumor volume [1, 6]: 157.30 ± 26.48** mm^3 | RTV (relative tumor volume) [1, 7]: 1.49 ± 0.39 | T/C (relative tumor growth rate) [1, 7]: 41.39% | Tumor volume [1, 7]: 147.47 ± 41.99** mm^3 | RTV (relative tumor volume) [1, 8]: 1.59 ± 0.47 | T/C (relative tumor growth rate) [1, 8]: 34.23% | Tumor volume [1, 8]: 155.55 ± 44.12** mm^3 | RTV (relative tumor volume) [1, 9]: 2.15 ± 0.81 | T/C (relative tumor growth rate) [1, 9]: 33.77% | Tumor volume [1, 9]: 208.93 ± 68.26** mm^3 | RTV (relative tumor volume) [1, 10]: 2.24 ± 0.43 | T/C (relative tumor growth rate) [1, 10]: 26.80% | Tumor volume [1, 10]: 224.22 ± 57.63** mm^3 | RTV (relative tumor volume) [1, 11]: 1.87 ± 0.28 | T/C (relative tumor growth rate) [1, 11]: 19.30% | Tumor volume [1, 11]: 186.80 ± 42.03** mm^3 | effect on the body weight of the experimental mice (in words) ([2]; 10 mg/kg docetaxel, P<0.01): Extremely significant effect | Initial body weight ([2]; Docetaxel 10 mg/kg group, before dosing): 22.50 ± 1.26 g | Final body weight ([2]; Docetaxel 10 mg/kg, once every 3 days, end of study (21 days)): 15.17 ± 0.90 g | oral bioavailability [3]: less than 8% | intracellular concentration higher than that of paclitaxel [4]: 3 times
